Structures can show the parent of a compound that is named as a salt.
Biological target: T1, human MRGPRX2 (Homo sapiens, UniProt Q96LB1)
T1 sequence (Q96LB1 1-330): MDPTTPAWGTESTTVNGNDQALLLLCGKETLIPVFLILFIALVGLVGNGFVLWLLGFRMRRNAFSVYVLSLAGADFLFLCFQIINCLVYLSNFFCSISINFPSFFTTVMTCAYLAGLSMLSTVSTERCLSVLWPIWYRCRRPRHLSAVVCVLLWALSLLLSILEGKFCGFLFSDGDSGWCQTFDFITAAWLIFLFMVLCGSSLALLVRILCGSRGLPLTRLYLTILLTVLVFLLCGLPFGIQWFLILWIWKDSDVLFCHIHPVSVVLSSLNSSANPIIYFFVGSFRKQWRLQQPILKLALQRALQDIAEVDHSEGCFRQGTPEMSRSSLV
Experiment: Ca2+ mobilization assay (FLIPR TETRA): inhibition of Cortistatin-14 mediated MRGPRX2 activation

Compound | IC50 [nM]
C[C@@H](C(=O)Nc1cnc(Oc2c(F)cccc2F)cn1)N1CCC(F)(F)[C@@H](c2cc[n+]([O-])cc2)C1 [Example 121, 4-((S)-1-((S)-1-((5-(2,6-difluorophenoxy)pyrazin-2-yl)amino)-1-oxopropan-2-yl)-4,4-difluoropiperidin-3-yl)pyridine 1-oxide] | ≤ 10
C[C@@H](C(=O)Nc1ccc(C2CC2)cn1)N1CCC(F)(F)[C@@H](c2ccc(=O)[nH]n2)C1 [Example 147] | 100 to 3160
C[C@@H](C(=O)Nc1cnc(Oc2ccccc2)cn1)N1CCC(F)(F)[C@@H](c2ccc(=O)[nH]c2)C1 [Example 60, (S)-2-((S)-4,4-difluoro-3-(6-oxo-1,6-dihydropyridin-3-yl)piperidin-1-yl)-N-(5-phenoxypyrazin-2-yl)propanamide] | 10 to 100
C[C@@H](C(=O)Nc1ccc(OCC2CC2)cn1)[C@H]1CCC(F)(F)[C@@H](c2ccc(=O)[nH]c2)C1 (single isomer, unassigned) [Example 275] | ≤ 10
CC(C(=O)Nc1ccc(Cc2ccccn2)cn1)N1CCC(F)(F)[C@@H](c2ccc(=O)[nH]c2)C1 (stereo partly drawn) [Example 57, 2-((S)-4,4-difluoro-3-(6-oxo-1,6-dihydropyridin-3-yl)piperidin-1-yl)-N-(5-(pyridin-2-ylmethyl)pyridin-2-yl)propanamide hydrochloride] | 100 to 3160
COc1ccc(NC(=O)C(C)N2CCC(F)(F)[C@@H](c3ccc(=O)[nH]c3)C2)nc1 (stereo partly drawn) [Example 44, 2-((S)-4,4-difluoro-3-(6-oxo-1,6-dihydropyridin-3-yl)piperidin-1-yl)-N-(5-methoxypyridin-2-yl)propanamide] | 3160 to 31600
Cc1cc([C@@H]2CCCN([C@@H](C)C(=O)Nc3ccc(Cl)cn3)C2)c[nH]c1=O (single isomer, unassigned) [Example 184] | 3160 to 31600
C[C@@H](C(=O)Nc1ccc(Oc2ncc(F)cc2F)cn1)[C@H]1CCC(F)(F)[C@@H](c2ccc(=O)[nH]c2)C1 [Example 281, (R)-2-((1S,3R)-4,4-difluoro-3-(6-oxo-1,6-dihydropyridin-3-yl)cyclohexyl)-N-(5-((3,5-difluoropyridin-2-yl)oxy)pyridin-2-yl)propanamide] | ≤ 10
CC(C(=O)Nc1ccc(Oc2ccccc2)cn1)N1CCC(F)(F)C(c2c[nH]c(=O)c(N)c2)C1 (stereo not drawn) [Example 139, 2-(3-(5-amino-6-oxo-1,6-dihydropyridin-3-yl)-4,4-difluoropiperidin-1-yl)-N-(5-phenoxypyridin-2-yl)propanamide] | 10 to 100
C[C@@H](C(=O)Nc1ccc(OCC2CC2)cn1)N1CCC[C@@](O)(c2ccc(=O)[nH]c2)C1 (single isomer, unassigned) [Example 171] | 3160 to 31600
C[C@@H](C(=O)Nc1ccc(OC2CCCC2)cn1)N1CCC(F)(F)[C@@H](c2ccc(=O)[nH]c2)C1 [Example 9, (S)-N-(5-(cyclopentyloxy)pyridin-2-yl)-2-((S)-4,4-difluoro-3-(6-oxo-1,6-dihydropyridin-3-yl)piperidin-1-yl)propanamide] | 10 to 100
CC(C(=O)Nc1ccc(F)cn1)N1CCC(F)(F)C(c2cc[n+]([O-])c(C(O)C(F)(F)F)c2)C1 (stereo not drawn) [Example 256, 4-(4,4-difluoro-1-(1-((5-fluoropyridin-2-yl)amino)-1-oxopropan-2-yl)piperidin-3-yl)-2-(2,2,2-trifluoro-1-hydroxyethyl)pyridine 1-oxide] | 10 to 100
C[C@@H](C(=O)Nc1ccc(Oc2ccc(F)cc2)cn1)N1CCC(F)(F)[C@@H](c2c[nH]c(=O)c([C@H](N)C(F)(F)F)c2)C1 (single isomer, unassigned) [Example 233] | ≤ 10
C[C@@H](C(=O)Nc1cnc(Oc2ccc(F)cc2)cn1)N1CCC(F)(F)[C@@H](c2c[nH]c(=O)c(CS(C)(=O)=O)c2)C1 [Example 215, (S)-2-((S)-4,4-difluoro-3-(5-((methylsulfonyl)methyl)-6-oxo-1,6-dihydropyridin-3-yl)piperidin-1-yl)-N-(5-(4-fluorophenoxy)pyrazin-2-yl)propanamide] | 10 to 100
C[C@@H](C(=O)Nc1ccc(Oc2ccc(F)cc2F)cn1)N1CCC(F)(F)[C@@H](c2c[nH]c(=O)c(CN3CCOCC3)c2)C1 [Example 227, (S)-2-((S)-4,4-difluoro-3-(5-(morpholinomethyl)-6-oxo-1,6-dihydropyridin-3-yl)piperidin-1-yl)-N-(5-(2,4-difluorophenoxy)pyridin-2-yl)propanamide] | ≤ 10
Cc1cc(C2CN([C@@H](C)C(=O)Nc3ccc(F)cn3)CCC2(F)F)cn(CC(F)(F)F)c1=O (stereo partly drawn) [Example 200, (2S)-2-(4,4-difluoro-3-(5-methyl-6-oxo-1-(2,2,2-trifluoroethyl)-1,6-dihydropyridin-3-yl)piperidin-1-yl)-N-(5-fluoropyridin-2-yl)propanamide] | 3160 to 31600
C[C@@H](C(=O)Nc1ccc(Oc2ccc(F)cc2F)cn1)N1CCC(F)(F)[C@@H](c2cc[n+]([O-])cc2)C1 [Example 117, 4-((S)-1-((S)-1-((5-(2,4-difluorophenoxy)pyridin-2-yl)amino)-1-oxopropan-2-yl)-4,4-difluoropiperidin-3-yl)pyridine 1-oxide] | ≤ 10
C[C@@H](C(=O)Nc1ccc(Oc2ccc(F)cc2CO)cn1)N1CCC(F)(F)[C@@H](c2ccc(=O)[nH]c2)C1 [Example 271, (S)-2-((S)-4,4-difluoro-3-(6-oxo-1,6-dihydropyridin-3-yl)piperidin-1-yl)-N-(5-(4-fluoro-2-(hydroxymethyl)phenoxy)pyridin-2-yl)propanamide] | 10 to 100
CC(C(=O)Nc1ccc(OCC2CCCC2)cn1)N1CCC(F)(F)[C@@H](c2ccc(=O)[nH]c2)C1 (stereo partly drawn) [Example 47, N-(5-(cyclopentyl-methoxy)pyridin-2-yl)-2-((S)-4,4-difluoro-3-(6-oxo-1,6-dihydropyridin-3-yl)piperidin-1-yl)propanamide] | 100 to 3160
CC(C(=O)Nc1ccc(Oc2cccc(=O)[nH]2)cn1)N1CCC(F)(F)[C@@H](c2ccc(=O)[nH]c2)C1 (stereo partly drawn) [Example 267, 2-((S)-4,4-difluoro-3-(6-oxo-1,6-dihydropyridin-3-yl)piperidin-1-yl)-N-(5-((6-oxo-1,6-dihydropyridin-2-yl)oxy)pyridin-2-yl)propanamide] | 10 to 100
CC(C(=O)Nc1ccc(CC2CCCC2)cn1)N1CCC(F)(F)[C@@H](c2ccc(=O)[nH]c2)C1 (stereo partly drawn) [Example 33, N-(5-(cyclopentyl-methyl)pyridin-2-yl)-2-((S)-4,4-difluoro-3-(6-oxo-1,6-dihydropyridin-3-yl)piperidin-1-yl)propanamide] | 100 to 3160
CC(C(=O)Nc1ccc(Oc2ccc(F)cc2)cn1)N1CCC(F)(F)C(c2ccc(=O)n(CCS(C)(=O)=O)c2)C1 (stereo not drawn) [Example 192, 2-(4,4-difluoro-3-(1-(2-(methylsulfonyl)ethyl)-6-oxo-1,6-dihydropyridin-3-yl)piperidin-1-yl)-N-(5-(4-fluorophenoxy)pyridin-2-yl)propanamide] | 10 to 100
CC(C(=O)Nc1ccc(Oc2ccc(F)cc2)cn1)N1CCC(F)(F)C(c2c[nH]c(=O)c(CN(C)C)c2)C1 (stereo not drawn) [Example 230, 2-(3-(5-((dimethylamino)methyl)-6-oxo-1,6-dihydropyridin-3-yl)-4,4-difluoropiperidin-1-yl)-N-(5-(4-fluorophenoxy)pyridin-2-yl)propanamide] | 10 to 100
Cc1cc(C2CN([C@@H](C)C(=O)Nc3ccc(F)cn3)CCC2(F)F)cc[n+]1[O-] (stereo partly drawn) [Example 217, 4-(4,4-difluoro-1l-((S)-1-((5-fluoropyridin-2-yl)amino)-1-oxopropan-2-yl)piperidin-3-yl)-2-methylpyridine 1-oxide] | 100 to 3160
CC(C(=O)Nc1cc2cnn(CC3CC3)c2cn1)N1CCC(F)(F)[C@@H](c2ccc(=O)[nH]c2)C1 (stereo partly drawn) [Example 40, N-(1-(cyclopropyl-methyl)-1H-pyrazolo[3,4-c]pyridin-5-yl)-2-((S)-4,4-difluoro-3-(6-oxo-1,6-dihydropyridin-3-yl)piperidin-1-yl)propanamide] | 100 to 3160
C[C@@H](C(=O)Nc1ccc(OCC2CC2)nn1)N1CCC(F)(F)[C@@H](c2c[nH]c(=O)c(N)n2)C1 (single isomer, unassigned) [Example 104] | ≤ 10
CC(C(=O)Nc1ccc(-c2ccon2)cn1)N1CCC(F)(F)[C@@H](c2ccc(=O)[nH]c2)C1 (stereo partly drawn) [Example 56, 2-((S)-4,4-difluoro-3-(6-oxo-1,6-dihydropyridin-3-yl)piperidin-1-yl)-N-(5-(isoxazol-3-yl)pyridin-2-yl)propanamide] | 3160 to 31600
C[C@@H](C(=O)Nc1ccc(OCC2CC2)cn1)N1CCC(F)(F)[C@@H](c2c[nH]c(=O)c(C(C)(C)O)c2)C1 [Example 152, (S)—N-(5-(cyclopropylmethoxy)pyridin-2-yl)-2-((S)-4,4-difluoro-3-(5-(2-hydroxypropan-2-yl)-6-oxo-1,6-dihydropyridin-3-yl)piperidin-1-yl)propanamide] | 10 to 100
C[C@@H](C(=O)Nc1ccc(Oc2ccc(F)c(F)c2F)cn1)N1CCC(F)(F)[C@@H](c2cc[n+]([O-])cc2)C1 [Example 131, 4-((S)-4,4-difluoro-1-((S)-1-oxo-1-((5-(2,3,4-trifluorophenoxy)pyridin-2-yl)amino)propan-2-yl)piperidin-3-yl)pyridine 1-oxide] | ≤ 10
C[C@@H](C(=O)Nc1ccc(Oc2ccc(F)cc2)cn1)N1CCC(F)(F)[C@@H](c2c[nH]c(=O)c(C#N)c2)C1 [Example 251, (S)-2-((S)-3-(5-cyano-6-oxo-1,6-dihydropyridin-3-yl)-4,4-difluoropiperidin-1-yl)-N-(5-(4-fluorophenoxy)pyridin-2-yl)propanamide] | ≤ 10

Reference: US11976057B2, “MrgX2 antagonists” (GlaxoSmithKline Intellectual Property Development Limited, priority 2020, dated 2024)
